Reference: ChEMBL document CHEMBL1201862, “PubChem BioAssay data set” (2004)
Calls of active or inactive are those of the source.

Assays:
[1] = molecular target: T1, Protein phosphatase methylesterase 1 (Homo sapiens, UniProt Q9Y570); assay: PME-1 inhibitor potency by in-gel ABPP, dose response, selectivity assay for PME-1 inhibitor project, cell lysate, mouse brain cytosol, FP-rhodamine, panel member PME-1 Assay Panel member description: Inhibition of endogenously expressed PME-1 (AID 2366)
[2] = molecular target: T1, Protein phosphatase methylesterase 1; assay: Late stage results from the probe development effort to identify inhibitors of the protein methylesterase PME-1: Gel-based Activity-Based Protein Profiling (ABPP) IC50: Purified enzyme.; type: functional
BJ [3] = assay: cytotoxicity toward BJ-TERT-LT-ST fibroblasts, dose response, cell-based, RAS-independent, luminescence (AID 1935); type: functional; conditions: Homo sapiens;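 note: BJ fibroblasts immortalized with TERT plus LT and ST oncogenes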
[4] = molecular target: T2, Voltage-dependent T-type calcium channel subunit alpha-1H (Homo sapiens, UniProt O95180); type: functional
T2 sequence (O95180 whole entry): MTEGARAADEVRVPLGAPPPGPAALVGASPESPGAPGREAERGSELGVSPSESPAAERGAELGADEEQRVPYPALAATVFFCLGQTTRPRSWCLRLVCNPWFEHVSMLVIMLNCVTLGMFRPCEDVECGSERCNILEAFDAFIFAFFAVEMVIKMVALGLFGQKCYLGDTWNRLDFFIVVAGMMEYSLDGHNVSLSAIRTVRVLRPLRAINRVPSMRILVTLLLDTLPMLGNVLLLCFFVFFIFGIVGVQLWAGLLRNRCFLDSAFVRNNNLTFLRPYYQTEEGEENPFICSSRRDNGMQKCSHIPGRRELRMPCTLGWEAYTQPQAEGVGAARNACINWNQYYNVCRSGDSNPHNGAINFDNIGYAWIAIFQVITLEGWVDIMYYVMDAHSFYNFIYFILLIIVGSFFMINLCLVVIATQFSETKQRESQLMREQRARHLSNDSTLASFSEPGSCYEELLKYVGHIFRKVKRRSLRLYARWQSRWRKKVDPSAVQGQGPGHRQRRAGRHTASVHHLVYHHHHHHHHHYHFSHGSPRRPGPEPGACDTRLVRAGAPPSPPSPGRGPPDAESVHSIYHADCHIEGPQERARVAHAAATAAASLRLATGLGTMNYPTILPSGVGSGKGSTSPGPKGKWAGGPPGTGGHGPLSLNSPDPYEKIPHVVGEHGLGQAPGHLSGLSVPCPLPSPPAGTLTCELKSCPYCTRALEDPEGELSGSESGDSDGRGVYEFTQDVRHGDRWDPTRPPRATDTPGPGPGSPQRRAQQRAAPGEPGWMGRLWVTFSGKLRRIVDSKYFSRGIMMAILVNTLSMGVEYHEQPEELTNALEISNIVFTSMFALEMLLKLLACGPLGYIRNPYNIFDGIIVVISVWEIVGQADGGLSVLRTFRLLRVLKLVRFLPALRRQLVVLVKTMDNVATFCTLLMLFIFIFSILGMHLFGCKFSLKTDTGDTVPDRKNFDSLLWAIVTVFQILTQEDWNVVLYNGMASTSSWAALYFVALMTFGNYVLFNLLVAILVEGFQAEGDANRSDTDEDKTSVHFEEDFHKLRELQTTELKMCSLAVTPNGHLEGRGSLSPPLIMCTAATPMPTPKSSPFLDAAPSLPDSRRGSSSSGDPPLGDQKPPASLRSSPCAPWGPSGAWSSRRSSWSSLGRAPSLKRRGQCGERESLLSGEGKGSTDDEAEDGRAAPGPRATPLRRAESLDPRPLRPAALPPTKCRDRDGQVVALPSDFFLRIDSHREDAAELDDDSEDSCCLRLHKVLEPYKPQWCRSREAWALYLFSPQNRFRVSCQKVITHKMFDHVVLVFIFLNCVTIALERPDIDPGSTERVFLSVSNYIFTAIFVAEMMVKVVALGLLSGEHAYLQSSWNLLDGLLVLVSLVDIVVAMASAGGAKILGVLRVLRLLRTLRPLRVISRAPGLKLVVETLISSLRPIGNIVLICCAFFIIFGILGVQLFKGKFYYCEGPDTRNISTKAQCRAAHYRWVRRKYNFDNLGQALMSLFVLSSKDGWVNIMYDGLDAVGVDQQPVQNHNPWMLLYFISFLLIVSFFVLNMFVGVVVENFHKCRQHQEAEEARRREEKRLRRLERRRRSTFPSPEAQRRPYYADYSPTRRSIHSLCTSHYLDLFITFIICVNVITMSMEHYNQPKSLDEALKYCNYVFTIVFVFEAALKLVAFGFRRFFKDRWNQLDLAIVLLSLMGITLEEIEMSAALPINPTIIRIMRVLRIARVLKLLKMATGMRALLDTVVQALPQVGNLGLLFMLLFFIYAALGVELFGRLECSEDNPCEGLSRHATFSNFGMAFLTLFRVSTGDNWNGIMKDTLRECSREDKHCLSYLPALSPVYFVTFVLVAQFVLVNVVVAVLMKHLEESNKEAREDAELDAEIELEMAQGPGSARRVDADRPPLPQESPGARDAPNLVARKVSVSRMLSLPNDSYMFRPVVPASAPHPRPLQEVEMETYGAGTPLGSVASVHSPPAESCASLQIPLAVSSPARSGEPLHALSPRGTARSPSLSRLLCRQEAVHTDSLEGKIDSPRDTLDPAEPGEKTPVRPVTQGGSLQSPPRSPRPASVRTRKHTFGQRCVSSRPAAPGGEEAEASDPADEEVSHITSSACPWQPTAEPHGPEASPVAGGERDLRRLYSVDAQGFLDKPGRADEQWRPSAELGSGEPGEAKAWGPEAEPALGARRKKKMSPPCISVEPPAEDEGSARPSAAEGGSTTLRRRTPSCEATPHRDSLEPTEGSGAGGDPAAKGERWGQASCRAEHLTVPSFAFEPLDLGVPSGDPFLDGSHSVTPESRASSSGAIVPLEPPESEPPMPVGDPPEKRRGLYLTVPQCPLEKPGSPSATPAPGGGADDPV

BJ [5] = assay: cells; type: functional, cell-based; conditions: Homo sapiens
[6] = cytotoxicity toward DRD oncogenic fibroblasts, dose response, cell-based, non-viral oncogenic, luminescence (AID 1934); type: functional; conditions: Homo sapiens
BJ [7] = assay: cytotoxicity toward BJ-TERT fibroblasts, dose response, cell-based, RAS-independent, luminescence (AID 1933); type: functional; conditions: Homo sapiens
[8] = molecular target: T2, Voltage-dependent T-type calcium channel subunit alpha-1H; assay: Inhibitors of T-Type Calcium Channels. [Related pubchem assays (depositor defined):AID449739, AID463087, AID489005, AID493041, AID504579, AID504584, AID504619, AID504628]; type: functional
Salmon testes DNA = assay: DNA intercalators displacing acridine orange, dose response, artefact control for KSHV LANA DNA-binding inhibitor project, biochemical, fluorescence polarization, cherry-picked samples, set 2 (AID 504727); parameters: species or system Salmonidae
[9] = inhibitors of intracellular T. cruzi replication, confirmation, NIH3T3 host cells, beta-gal luminescence (AID 2044); type: functional, cell-based;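 note: intracellular parasites grown in NIH/3T3 mouse fibroblasts as host cells; luminescent beta-galactosidase reporter signal from transgenic T. cruzi replicating inside host cells; inhibitors lower the luminescence signal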
HeLa = assay: HeLa cell cytotoxicity, dose response, cytotoxicity control, 24 h, cherry-picked samples (AID 504726); type: functional, cell-based; conditions: Homo sapiens;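 note: potency for cytotoxicity as loss of luminescence signal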
[10] = cytotoxicity toward NIH3T3 fibroblasts, dose response, counter-screen, cell-based, ATP luminescence, mouse fibroblasts (AID 2010); type: functional;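 note: cells exposed to compound for about 90 hours before reading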
[11] = molecular target: FAD-linked sulfhydryl oxidase ALR (Homo sapiens, UniProt P55789); assay: inhibitors of human ALR sulfhydryl oxidase, dose response, biochemical, H2O2 detection, luminescence, cherry-pick (AID 493248)
FAD-linked sulfhydryl oxidase ALR, sequence (P55789 whole entry, the tested form may be a part): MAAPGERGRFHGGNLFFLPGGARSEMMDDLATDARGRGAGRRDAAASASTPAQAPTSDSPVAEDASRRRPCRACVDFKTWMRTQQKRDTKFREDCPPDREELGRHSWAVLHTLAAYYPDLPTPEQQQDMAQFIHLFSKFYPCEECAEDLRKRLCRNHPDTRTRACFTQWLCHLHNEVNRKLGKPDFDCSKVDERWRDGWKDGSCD

[12] = molecular target: Envelope glycoprotein gp160 (Human immunodeficiency virus 1, UniProt Q6QLK5); assay: inhibitors of HIV fusion peptide binding, primary screen, biochemical, uHTS, fluorescence dequenching (AID 1986)
Envelope glycoprotein gp160, sequence (Q6QLK5 whole entry, the tested form may be a part): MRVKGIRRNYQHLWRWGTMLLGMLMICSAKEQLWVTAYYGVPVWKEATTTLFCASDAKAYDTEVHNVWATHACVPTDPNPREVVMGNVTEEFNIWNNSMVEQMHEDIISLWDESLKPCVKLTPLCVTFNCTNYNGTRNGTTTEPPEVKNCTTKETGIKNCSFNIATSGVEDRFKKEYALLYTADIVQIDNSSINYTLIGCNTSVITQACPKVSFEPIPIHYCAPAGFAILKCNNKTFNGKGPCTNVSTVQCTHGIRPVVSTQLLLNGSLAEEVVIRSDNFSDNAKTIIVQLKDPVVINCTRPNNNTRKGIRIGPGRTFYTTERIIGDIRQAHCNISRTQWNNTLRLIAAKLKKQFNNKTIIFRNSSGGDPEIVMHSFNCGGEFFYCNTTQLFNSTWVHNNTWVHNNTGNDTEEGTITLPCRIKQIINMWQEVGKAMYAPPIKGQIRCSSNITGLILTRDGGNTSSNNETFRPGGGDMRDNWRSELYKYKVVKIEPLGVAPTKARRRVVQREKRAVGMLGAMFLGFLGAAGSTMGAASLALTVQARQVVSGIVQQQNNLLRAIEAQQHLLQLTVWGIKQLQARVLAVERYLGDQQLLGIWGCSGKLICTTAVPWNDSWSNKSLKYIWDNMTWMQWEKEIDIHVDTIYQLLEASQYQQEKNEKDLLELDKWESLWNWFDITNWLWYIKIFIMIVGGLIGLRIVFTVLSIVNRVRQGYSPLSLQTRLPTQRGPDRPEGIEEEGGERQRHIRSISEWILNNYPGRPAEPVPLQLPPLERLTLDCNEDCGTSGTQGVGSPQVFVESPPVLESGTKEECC

[13] = molecular target: Melanin-concentrating hormone receptor 1 (Homo sapiens, UniProt Q99705); assay: Late-stage fluorescence-based counterscreen for antagonists of the G-protein coupled receptor 7 (GPR7): cell-based dose response assay to identify antagonists of the melanin-concentrating hormone receptor 1 (MCHR1). [Related pubchem assays (depositor defined):AID1861, AID1880, AID1952, AID2148, AID2251, AID2257, AID485339]; type: functional;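 note: stimulated with 30 nM MCH peptide agonist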
Melanin-concentrating hormone receptor 1, sequence (Q99705 whole entry): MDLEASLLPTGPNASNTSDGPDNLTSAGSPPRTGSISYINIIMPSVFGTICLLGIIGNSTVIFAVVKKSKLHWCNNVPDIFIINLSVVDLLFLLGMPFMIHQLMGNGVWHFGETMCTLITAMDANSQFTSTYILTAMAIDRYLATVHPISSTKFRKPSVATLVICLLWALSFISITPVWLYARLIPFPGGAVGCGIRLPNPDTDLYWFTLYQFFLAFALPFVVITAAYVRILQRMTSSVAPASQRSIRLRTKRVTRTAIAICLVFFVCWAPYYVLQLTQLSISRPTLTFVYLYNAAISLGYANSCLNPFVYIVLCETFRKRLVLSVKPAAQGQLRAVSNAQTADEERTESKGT

[14] = molecular target: T3, Neuropeptides B/W receptor type 1 (Homo sapiens, UniProt P48145); assay: GPR7 antagonist potency, late-stage follow-up, cell-based, fluorescence, dose response (AID 463251); type: functional
T3 sequence (P48145 whole entry): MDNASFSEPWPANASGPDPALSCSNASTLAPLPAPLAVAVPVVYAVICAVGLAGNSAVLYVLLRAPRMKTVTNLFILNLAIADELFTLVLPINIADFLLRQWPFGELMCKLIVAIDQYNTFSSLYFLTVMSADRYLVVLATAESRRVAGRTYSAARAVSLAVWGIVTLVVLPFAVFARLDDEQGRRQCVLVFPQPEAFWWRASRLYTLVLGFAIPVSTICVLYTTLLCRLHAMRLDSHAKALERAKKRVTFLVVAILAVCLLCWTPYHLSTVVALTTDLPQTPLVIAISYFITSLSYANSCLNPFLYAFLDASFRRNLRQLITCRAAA

T1 sequence (Q9Y570 whole entry): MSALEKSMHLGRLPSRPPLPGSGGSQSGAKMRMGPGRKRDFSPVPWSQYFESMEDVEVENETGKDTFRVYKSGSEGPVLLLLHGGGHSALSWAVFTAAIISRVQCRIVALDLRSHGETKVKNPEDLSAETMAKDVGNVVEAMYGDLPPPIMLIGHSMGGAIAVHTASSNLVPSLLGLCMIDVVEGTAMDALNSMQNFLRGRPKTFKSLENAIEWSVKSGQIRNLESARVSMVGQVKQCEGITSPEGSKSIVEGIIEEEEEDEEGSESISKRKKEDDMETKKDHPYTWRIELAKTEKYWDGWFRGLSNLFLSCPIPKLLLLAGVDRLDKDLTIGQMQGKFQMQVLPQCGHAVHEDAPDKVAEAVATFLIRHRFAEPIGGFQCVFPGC

CS(=O)(=O)/C(C#N)=C/c1ccc[nH]1
IC50 [1]: > 20 µM (inactive) | IC50 [2]: > 20 µM (not active)

Clc1ccc(Cn2ncc3c(NCc4ccco4)ncnc32)c(Cl)c1
EC50 (BJ [3]): > 150 µM (inconclusive) | EC50 [4]: 1.99 µM (active) | EC50 (BJ [5]): > 150 µM (not active) | EC50 [6]: 12.3 µM (inconclusive) | EC50 (BJ [7]): 9.56 µM (inconclusive) | EC50 [8]: 9.5 µM (active)

NNc1nc(-c2ccccc2)cs1
AC50 (Salmon testes DNA): 58.7 µM (active) | EC50 [9]: 4.06 µM (active) | AC50 (HeLa): > 350 µM (inactive) | EC50 [10]: 4.75 µM (active) | AC50 [11]: 5.04 µM (active)

C/C(=C/CCC(C)C1CCC2(C)C3CCC4C(C)(C)C(=O)CCC4(C)C3=CCC12C)C(=O)O (stereo unspecified)
IC50 [12]: > 99 µM (inactive)

COC(=O)/C=C/c1cnn(-c2ccc(C(C)C)cc2)c(=O)c1Oc1ccc(OC)cc1
IC50 [13]: > 20 µM (inactive) | IC50 [14]: > 20 µM (inactive)
